Experimental data reported in patent publication US12187723B2 (BRISTOL-MYERS SQUIBB COMPANY, priority 2019, dated 2025).
pIC50: −log10 of the molar value.

Experiments:
human TLR7 = biological target: T1, human TLR7 (Homo sapiens, UniProt Q9NYK1); assay: TLR7 inhibition reporter assay (HEK-Blue SEAP); assay type: cell-based; settings: HEK-Blue cells overexpressing human TLR7, gardiquimod 7.5 μM, 22 hour incubation
T1 construct: host or cells: HEK-Blue cells
T1 sequence (Q9NYK1 27-1049): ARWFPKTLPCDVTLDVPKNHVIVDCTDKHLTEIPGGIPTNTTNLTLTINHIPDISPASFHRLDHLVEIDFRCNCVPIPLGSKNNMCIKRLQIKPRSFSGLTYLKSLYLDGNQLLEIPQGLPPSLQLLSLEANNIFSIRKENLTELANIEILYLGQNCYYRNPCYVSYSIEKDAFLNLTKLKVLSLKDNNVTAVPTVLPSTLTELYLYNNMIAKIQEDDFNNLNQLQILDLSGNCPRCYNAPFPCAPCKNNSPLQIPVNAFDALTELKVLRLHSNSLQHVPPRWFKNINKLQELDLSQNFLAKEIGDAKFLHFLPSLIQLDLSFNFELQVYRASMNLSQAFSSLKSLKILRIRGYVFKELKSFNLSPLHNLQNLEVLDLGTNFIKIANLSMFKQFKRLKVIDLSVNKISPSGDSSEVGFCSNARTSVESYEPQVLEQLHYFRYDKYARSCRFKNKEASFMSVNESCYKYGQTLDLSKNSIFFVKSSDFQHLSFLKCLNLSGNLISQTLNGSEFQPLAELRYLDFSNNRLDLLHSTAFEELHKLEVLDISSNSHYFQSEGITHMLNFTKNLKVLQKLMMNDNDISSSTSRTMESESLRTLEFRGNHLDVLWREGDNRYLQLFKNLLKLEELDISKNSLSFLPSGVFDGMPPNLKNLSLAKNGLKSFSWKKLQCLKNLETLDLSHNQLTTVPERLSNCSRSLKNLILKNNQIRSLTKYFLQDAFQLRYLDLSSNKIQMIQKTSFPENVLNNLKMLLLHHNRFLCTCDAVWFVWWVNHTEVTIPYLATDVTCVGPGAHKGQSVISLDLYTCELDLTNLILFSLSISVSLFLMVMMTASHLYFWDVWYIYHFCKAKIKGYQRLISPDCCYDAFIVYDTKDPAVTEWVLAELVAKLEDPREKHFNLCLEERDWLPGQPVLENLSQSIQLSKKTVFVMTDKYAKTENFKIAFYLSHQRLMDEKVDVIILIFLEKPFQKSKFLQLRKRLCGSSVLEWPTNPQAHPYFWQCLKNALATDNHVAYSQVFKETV
Summary of the method: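 SEAP readout via HEK-Blue Detection medium after 22 h at 37 °C, 5% CO2 defines inhibition, normalized between agonist-plus-DMSO wells and a reference inhibitor. Compound dose range 0.05 nM–50 μM; TLR7 cells at 15,000/well (gardiquimod), TLR8 at 20,000/well (R848).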

human TLR9 = biological target: T2, human TLR9 (Homo sapiens, UniProt Q9NR96); assay: TLR9 inhibition reporter assay (HEK-Blue SEAP); assay type: cell-based; settings: HEK-Blue cells overexpressing human TLR9, ODN2006 5 nM, 22 hour incubation
T2 construct: host or cells: HEK-Blue cells
T2 sequence (Q9NR96 26-1032): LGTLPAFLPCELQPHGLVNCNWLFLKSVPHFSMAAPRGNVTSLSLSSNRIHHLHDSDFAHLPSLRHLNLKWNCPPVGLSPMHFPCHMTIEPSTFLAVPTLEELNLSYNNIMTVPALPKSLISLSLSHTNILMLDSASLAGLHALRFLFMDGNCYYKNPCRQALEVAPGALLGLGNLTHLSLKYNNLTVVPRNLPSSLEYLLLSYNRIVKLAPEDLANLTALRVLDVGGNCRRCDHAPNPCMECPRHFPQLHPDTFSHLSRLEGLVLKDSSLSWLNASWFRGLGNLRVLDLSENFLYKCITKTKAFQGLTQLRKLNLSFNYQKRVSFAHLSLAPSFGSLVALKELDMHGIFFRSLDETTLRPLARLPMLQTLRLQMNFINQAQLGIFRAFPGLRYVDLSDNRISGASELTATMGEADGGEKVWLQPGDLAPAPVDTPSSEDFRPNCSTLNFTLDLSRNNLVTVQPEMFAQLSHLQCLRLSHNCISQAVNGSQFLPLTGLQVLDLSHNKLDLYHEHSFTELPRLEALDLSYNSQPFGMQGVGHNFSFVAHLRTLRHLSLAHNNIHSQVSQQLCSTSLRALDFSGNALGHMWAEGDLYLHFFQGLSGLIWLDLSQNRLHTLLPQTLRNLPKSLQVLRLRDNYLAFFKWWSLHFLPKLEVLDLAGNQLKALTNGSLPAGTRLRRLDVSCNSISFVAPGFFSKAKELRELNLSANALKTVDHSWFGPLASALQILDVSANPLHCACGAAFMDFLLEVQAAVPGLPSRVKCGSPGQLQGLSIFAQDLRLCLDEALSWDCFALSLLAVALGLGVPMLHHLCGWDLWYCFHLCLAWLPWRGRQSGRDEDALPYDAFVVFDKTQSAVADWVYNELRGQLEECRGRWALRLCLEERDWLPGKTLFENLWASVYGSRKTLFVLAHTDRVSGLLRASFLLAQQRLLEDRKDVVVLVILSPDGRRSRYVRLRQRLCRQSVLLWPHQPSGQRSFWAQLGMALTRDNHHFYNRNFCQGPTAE
Summary of the method: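 HEK-Blue cells overexpressing human TLR7, TLR8 or TLR9 carry a SEAP reporter driven by NF-κB/AP-1 sites. Compounds (0.05 nM–50 μM) were preincubated 30 min at room temperature, then cells were stimulated with gardiquimod 7.5 μM (TLR7), R848 15.9 μM (TLR8) or ODN2006 5 nM (TLR9) for 22 h at 37 °C.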

Structure (SMILES)	pIC50 (human TLR7)	pIC50 (human TLR9)
COc1cc(-c2cc3[nH]c(=O)n(C4CCN(C)CC4)c3cc2C)cn2ncnc12 [Example 1, 5-(8-methoxy-[1,2,4]triazolo[1,5-a]pyridin-6-yl)-6-methyl-1-(1-methylpiperidin-4-yl)-1,3-dihydro-2H-benzo[d]imidazol-2-one]	7.42	6.56
Cc1cc2c(cc1-c1cc(C)c3ncnn3c1)[nH]c(=O)n2C1CCN(C(C)C)CC1 [Example 2, 1-(1-isopropylpiperidin-4-yl)-6-methyl-5-(8-methyl-[1,2,4]triazolo[1,5-a]pyridin-6-yl)-1,3-dihydro-2H-benzo[d]imidazol-2-one]	7.16	5.25
Cc1cc2c(cc1-c1cc(C)c3ncnn3c1)[nH]c(=O)n2[C@H]1CC[C@@H](NCc2ncn(C)n2)CC1 [Example 33, 6-methyl-1-((1s,4s)-4-(((1-methyl-1H-1,2,4-triazol-3-yl)methyl)amino)cyclohexyl)-5-(8-methyl-[1,2,4]triazolo[1,5-a]pyridin-6-yl)-1,3-dihydro-2H-benzo[d]imidazol-2-one]	6.86	4.68
Cc1cc2c(cc1-c1cc(C)c3ncnn3c1)[nH]c(=O)n2[C@@H]1CCCN(Cc2ncn(C)n2)C1 [Example 35, (R)-6-methyl-1-(1-((1-methyl-1H-1,2,4-triazol-3-yl)methyl)piperidin-3-yl)-5-(8-methyl-[1,2,4]triazolo[1,5-a]pyridin-6-yl)-1,3-dihydro-2H-benzo[d]imidazol-2-one]	6.14	< 4.30
COc1ncc(CN2CCC[C@H](n3c(=O)[nH]c4cc(-c5cc(C)c6ncnn6c5)c(C)cc43)C2)cn1 [Example 36, (S)-1-(1-((2-methoxypyrimidin-5-yl)methyl)piperidin-3-yl)-6-methyl-5-(8-methyl-[1,2,4]triazolo[1,5-a]pyridin-6-yl)-1,3-dihydro-2H-benzo[d]imidazol-2-one]	6.77	4.51
Cc1cc2c(cc1-c1cc(C)c3ncnn3c1)[nH]c(=O)n2[C@@H]1CCCN(CC2CC2)C1 [Example 37, (R)-1-(1-(cyclopropylmethyl)piperidin-3-yl)-6-methyl-5-(8-methyl-[1,2,4]triazolo[1,5-a]pyridin-6-yl)-1,3-dihydro-2H-benzo[d]imidazol-2-one]	7.51	5.00
Cc1cc2c(cc1-c1cc(C)c3ncnn3c1)[nH]c(=O)n2[C@@H]1CCCN(CCCC(F)(F)F)C1 [Example 39, (R)-6-methyl-5-(8-methyl-[1,2,4]triazolo[1,5-a]pyridin-6-yl)-1-(1-(4,4,4-trifluorobutyl)piperidin-3-yl)-1,3-dihydro-2H-benzo[d]imidazol-2-one]	6.86	4.98
CCCN1CCC[C@@H](n2c(=O)[nH]c3cc(-c4cc(C)c5ncnn5c4)c(C)cc32)C1 [Example 42, (R)-6-methyl-5-(8-methyl-[1,2,4]triazolo[1,5-a]pyridin-6-yl)-1-(1-propylpiperidin-3-yl)-1,3-dihydro-2H-benzo[d]imidazol-2-one]	7.58	4.98
Cc1cc2c(cc1-c1cc(C)c3ncnn3c1)[nH]c(=O)n2[C@@H]1CCCN(CC2CCOC2)C1 (stereo partly drawn) [Example 43, 6-methyl-5-(8-methyl-[1,2,4]triazolo[1,5-a]pyridin-6-yl)-1-((3R)-1-((tetrahydrofuran-3-yl)methyl)piperidin-3-yl)-1,3-dihydro-2H-benzo[d]imidazol-2-one]	7.05	4.78
Cc1cc2c(cc1-c1cc(C)c3ncnn3c1)[nH]c(=O)n2[C@@H]1CCCN(CCC(C)(C)C)C1 [Example 44, (R)-1-(1-(3,3-dimethylbutyl)piperidin-3-yl)-6-methyl-5-(8-methyl-[1,2,4]triazolo[1,5-a]pyridin-6-yl)-1,3-dihydro-2H-benzo[d]imidazol-2-one]	6.98	5.33
CCC(CC)CN1CCC[C@@H](n2c(=O)[nH]c3cc(-c4cc(C)c5ncnn5c4)c(C)cc32)C1 [Example 45, (R)-1-(1-(2-ethylbutyl)piperidin-3-yl)-6-methyl-5-(8-methyl-[1,2,4]triazolo[1,5-a]pyridin-6-yl)-1,3-dihydro-2H-benzo[d]imidazol-2-one]	7.53	5.52
Cc1cc2c(cc1-c1cc(C)c3ncnn3c1)[nH]c(=O)n2[C@@H]1CCCN(Cc2cccnc2)C1 [Example 46, (R)-6-methyl-5-(8-methyl-[1,2,4]triazolo[1,5-a]pyridin-6-yl)-1-(1-(pyridin-3-ylmethyl)piperidin-3-yl)-1,3-dihydro-2H-benzo[d]imidazol-2-one]	6.76	5.11

Now those with a higher pIC50 (human TLR7), led by results:

pIC50 (human TLR7)	pIC50 (human TLR9)	Structure (SMILES)
7.69	5.48	CCC(C)N[C@H]1CC[C@@H](n2c(=O)[nH]c3cc(-c4cc(C)c5ncnn5c4)c(C)cc32)CC1 (stereo partly shown) [Example 34, 1-((1s,4s)-4-(sec-butylamino)cyclohexyl)-6-methyl-5-(8-methyl-[1,2,4]triazolo[1,5-a]pyridin-6-yl)-1,3-dihydro-2H-benzo[d]imidazol-2-one]
7.69	5.63	Cc1cc2c(cc1-c1cc(C)c3ncnn3c1)[nH]c(=O)n2[C@H]1CC[C@@H](NCC(C)(C)C)CC1 [Example 32, 6-methyl-5-(8-methyl-[1,2,4]triazolo[1,5-a]pyridin-6-yl)-1-((1s,4s)-4-(neopentylamino)cyclohexyl)-1,3-dihydro-2H-benzo[d]imidazol-2-one]
7.73	5.44	Cc1cc2c(cc1-c1cc(C)c3ncnn3c1)[nH]c(=O)n2[C@@H]1CCCN(CC2CCCC2)C1 [Example 47, (R)-1-(1-(cyclopentylmethyl)piperidin-3-yl)-6-methyl-5-(8-methyl-[1,2,4]triazolo[1,5-a]pyridin-6-yl)-1,3-dihydro-2H-benzo[d]imidazol-2-one]
7.83	5.19	Cc1cc2c(cc1-c1cc(C)c3ncnn3c1)[nH]c(=O)n2[C@@H]1CCCN(CC(C)C)C1 [Example 40, (R)-1-(1-isobutylpiperidin-3-yl)-6-methyl-5-(8-methyl-[1,2,4]triazolo[1,5-a]pyridin-6-yl)-1,3-dihydro-2H-benzo[d]imidazol-2-one]
7.91	5.09	Cc1cc2c(cc1-c1cc(C)c3ncnn3c1)[nH]c(=O)n2[C@@H]1CCCN(CC2CCOCC2)C1 [Example 41, (R)-6-methyl-5-(8-methyl-[1,2,4]triazolo[1,5-a]pyridin-6-yl)-1-(1-((tetrahydro-2H-pyran-4-yl)methyl)piperidin-3-yl)-1,3-dihydro-2H-benzo[d]imidazol-2-one]
